Results: ChEMBL document CHEMBL4507281, “Data for DCP probe BI-4394” (2021)

Tests used:
[1] = target: Serine/threonine-protein kinase D3 (Homo sapiens) (UniProt O94806); conditions: Compound concentration 100.0 nM
[2] = target: Tyrosine-protein kinase CSK (Homo sapiens) (UniProt P41240); conditions: Compound concentration 100.0 nM
[3] = target: Serine/threonine-protein kinase Nek5 (Homo sapiens) (UniProt Q6P3R8); conditions: Compound concentration 100.0 nM
[4] = target: Receptor tyrosine-protein kinase erbB-4 (Homo sapiens) (UniProt Q15303); conditions: Compound concentration 100.0 nM
[5] = target: Vascular endothelial growth factor receptor 3 (Homo sapiens) (UniProt P35916); conditions: Compound concentration 100.0 nM
[6] = target: Calcium/calmodulin-dependent protein kinase type 1G (Homo sapiens) (UniProt Q96NX5); conditions: Compound concentration 100.0 nM
[7] = target: Angiopoietin-1 receptor (Homo sapiens) (UniProt Q02763); conditions: Compound concentration 100.0 nM
[8] = target: Myosin light chain kinase, smooth muscle (Homo sapiens) (UniProt Q15746); conditions: Compound concentration 100.0 nM
[9] = target: Serine/threonine-protein kinase PLK3 (Homo sapiens) (UniProt Q9H4B4); conditions: Compound concentration 100.0 nM
[10] = target: Serine/threonine-protein kinase ICK (Homo sapiens) (UniProt Q9UPZ9); conditions: Compound concentration 100.0 nM
[11] = tested on: Receptor-type tyrosine-protein kinase FLT3 (Homo sapiens), P36888 [R834Q]; conditions: Compound concentration 100.0 nM
[12] = target: Serine/threonine-protein kinase Nek4 (Homo sapiens) (UniProt P51957); conditions: Compound concentration 100.0 nM
[13] = target: T1, Activin receptor type-1B (Homo sapiens) (UniProt P36896); conditions: Compound concentration 100.0 nM
T1 sequence (whole entry): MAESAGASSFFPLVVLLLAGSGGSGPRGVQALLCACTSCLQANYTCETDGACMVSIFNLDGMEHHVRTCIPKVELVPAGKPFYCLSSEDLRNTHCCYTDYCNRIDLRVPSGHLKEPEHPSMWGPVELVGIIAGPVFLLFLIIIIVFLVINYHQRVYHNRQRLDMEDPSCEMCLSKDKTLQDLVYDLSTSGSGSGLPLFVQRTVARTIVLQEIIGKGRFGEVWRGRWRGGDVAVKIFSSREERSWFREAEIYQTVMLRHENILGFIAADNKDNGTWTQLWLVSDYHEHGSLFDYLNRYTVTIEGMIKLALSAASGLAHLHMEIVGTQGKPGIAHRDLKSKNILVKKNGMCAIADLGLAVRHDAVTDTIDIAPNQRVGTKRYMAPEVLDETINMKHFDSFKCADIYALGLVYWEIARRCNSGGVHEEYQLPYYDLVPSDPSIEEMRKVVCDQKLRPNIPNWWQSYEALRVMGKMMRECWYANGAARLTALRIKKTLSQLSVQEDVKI

[14] = target: Epidermal growth factor receptor (Homo sapiens) (UniProt P00533); conditions: Compound concentration 100.0 nM
[15] = target: 5-hydroxytryptamine receptor 5A (Homo sapiens) (UniProt P47898); conditions: Compound concentration 10.0 uM
[16] = target: Serine/threonine-protein kinase MARK2 (Homo sapiens) (UniProt Q7KZI7); conditions: Compound concentration 100.0 nM
[17] = target: Tyrosine-protein kinase JAK1 (Homo sapiens) (UniProt P23458); conditions: Compound concentration 100.0 nM
[18] = target: Histamine H3 receptor (Homo sapiens) (UniProt Q9Y5N1); conditions: Compound concentration 10.0 uM
[19] = target: T2, Phosphorylase b kinase regulatory subunit alpha, liver isoform (Homo sapiens) (UniProt P46019); conditions: Compound concentration 100.0 nM
T2 sequence (whole entry): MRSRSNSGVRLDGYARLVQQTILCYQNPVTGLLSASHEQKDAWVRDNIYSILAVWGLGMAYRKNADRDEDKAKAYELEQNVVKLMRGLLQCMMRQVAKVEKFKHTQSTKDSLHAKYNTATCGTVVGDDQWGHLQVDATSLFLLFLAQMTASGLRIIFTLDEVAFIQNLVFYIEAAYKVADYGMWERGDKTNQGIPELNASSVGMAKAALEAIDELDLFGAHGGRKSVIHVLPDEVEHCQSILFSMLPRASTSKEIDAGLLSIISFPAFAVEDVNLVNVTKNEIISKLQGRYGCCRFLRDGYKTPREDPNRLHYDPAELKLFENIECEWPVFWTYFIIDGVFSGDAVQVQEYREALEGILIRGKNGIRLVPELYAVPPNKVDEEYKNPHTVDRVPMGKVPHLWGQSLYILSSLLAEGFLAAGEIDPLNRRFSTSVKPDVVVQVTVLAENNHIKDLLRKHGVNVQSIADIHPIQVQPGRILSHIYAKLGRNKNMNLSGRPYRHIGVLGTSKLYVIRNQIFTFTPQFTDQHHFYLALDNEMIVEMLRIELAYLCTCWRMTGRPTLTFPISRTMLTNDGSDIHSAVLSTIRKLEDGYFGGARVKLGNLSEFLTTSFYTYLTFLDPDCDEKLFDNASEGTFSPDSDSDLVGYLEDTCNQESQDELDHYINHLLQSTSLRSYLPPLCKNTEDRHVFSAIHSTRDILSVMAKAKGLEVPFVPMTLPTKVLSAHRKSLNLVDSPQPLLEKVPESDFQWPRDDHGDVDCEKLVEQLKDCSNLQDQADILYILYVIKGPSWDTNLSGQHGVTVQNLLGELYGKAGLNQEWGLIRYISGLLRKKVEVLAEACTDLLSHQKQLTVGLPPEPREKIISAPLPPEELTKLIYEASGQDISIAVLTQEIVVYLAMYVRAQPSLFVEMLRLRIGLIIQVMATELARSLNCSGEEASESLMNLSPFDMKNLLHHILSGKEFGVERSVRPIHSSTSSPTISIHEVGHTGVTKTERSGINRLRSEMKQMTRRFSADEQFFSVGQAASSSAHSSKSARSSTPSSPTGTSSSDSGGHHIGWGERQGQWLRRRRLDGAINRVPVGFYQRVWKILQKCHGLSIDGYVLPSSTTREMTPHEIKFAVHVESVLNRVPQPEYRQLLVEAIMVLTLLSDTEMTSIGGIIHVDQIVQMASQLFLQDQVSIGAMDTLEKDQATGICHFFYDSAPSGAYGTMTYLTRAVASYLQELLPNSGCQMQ

[20] = target: Calcium/calmodulin-dependent protein kinase type 1B (Homo sapiens) (UniProt Q6P2M8); conditions: Compound concentration 100.0 nM
[21] = target: Ephrin type-A receptor 6 (Homo sapiens) (UniProt Q9UF33); conditions: Compound concentration 100.0 nM
[22] = target: Death-associated protein kinase 1 (Homo sapiens) (UniProt P53355); conditions: Compound concentration 100.0 nM

Chain of 5-hydroxytryptamine receptor 5A (Homo sapiens) (P47898 whole entry): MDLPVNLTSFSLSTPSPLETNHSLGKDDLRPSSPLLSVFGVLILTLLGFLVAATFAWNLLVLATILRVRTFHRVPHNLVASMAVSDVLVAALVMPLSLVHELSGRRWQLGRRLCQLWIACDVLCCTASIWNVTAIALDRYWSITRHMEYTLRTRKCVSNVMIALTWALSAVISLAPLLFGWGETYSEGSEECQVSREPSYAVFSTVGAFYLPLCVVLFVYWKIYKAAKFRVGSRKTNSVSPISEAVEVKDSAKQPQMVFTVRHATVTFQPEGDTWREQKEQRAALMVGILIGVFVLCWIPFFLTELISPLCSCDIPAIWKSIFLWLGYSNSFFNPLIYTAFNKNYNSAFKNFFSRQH
Chain of Serine/threonine-protein kinase PLK3 (Homo sapiens) (Q9H4B4 whole entry, looked up): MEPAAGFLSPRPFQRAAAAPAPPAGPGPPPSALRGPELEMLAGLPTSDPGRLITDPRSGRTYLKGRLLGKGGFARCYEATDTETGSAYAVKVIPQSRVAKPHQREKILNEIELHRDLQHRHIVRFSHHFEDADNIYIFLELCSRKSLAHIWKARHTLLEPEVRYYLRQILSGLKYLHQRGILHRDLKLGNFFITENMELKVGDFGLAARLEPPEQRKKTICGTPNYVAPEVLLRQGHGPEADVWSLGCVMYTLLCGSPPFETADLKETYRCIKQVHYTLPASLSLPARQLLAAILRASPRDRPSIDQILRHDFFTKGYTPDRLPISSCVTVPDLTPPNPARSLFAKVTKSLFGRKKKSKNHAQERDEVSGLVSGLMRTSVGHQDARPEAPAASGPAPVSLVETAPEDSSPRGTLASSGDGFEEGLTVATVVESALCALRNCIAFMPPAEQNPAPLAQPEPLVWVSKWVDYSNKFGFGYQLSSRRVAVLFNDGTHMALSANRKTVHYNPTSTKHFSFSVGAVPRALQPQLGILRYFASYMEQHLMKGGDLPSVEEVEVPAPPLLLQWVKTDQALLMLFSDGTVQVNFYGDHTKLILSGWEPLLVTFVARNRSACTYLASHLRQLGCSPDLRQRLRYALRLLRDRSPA
Chain of Calcium/calmodulin-dependent protein kinase type 1G (Homo sapiens) (Q96NX5 whole entry): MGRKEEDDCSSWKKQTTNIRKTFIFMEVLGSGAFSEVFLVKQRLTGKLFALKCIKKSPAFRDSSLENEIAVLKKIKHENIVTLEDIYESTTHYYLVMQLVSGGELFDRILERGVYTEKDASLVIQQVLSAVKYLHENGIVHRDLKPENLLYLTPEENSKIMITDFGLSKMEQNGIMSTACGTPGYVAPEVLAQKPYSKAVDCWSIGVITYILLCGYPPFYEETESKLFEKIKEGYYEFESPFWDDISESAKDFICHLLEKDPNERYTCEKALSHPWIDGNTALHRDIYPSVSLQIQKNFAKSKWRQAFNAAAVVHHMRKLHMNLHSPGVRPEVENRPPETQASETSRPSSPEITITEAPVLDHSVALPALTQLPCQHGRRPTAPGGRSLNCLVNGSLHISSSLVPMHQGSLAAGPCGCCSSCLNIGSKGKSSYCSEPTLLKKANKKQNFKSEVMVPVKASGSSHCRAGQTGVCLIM
Chain of Myosin light chain kinase, smooth muscle (Homo sapiens) (Q15746 whole entry): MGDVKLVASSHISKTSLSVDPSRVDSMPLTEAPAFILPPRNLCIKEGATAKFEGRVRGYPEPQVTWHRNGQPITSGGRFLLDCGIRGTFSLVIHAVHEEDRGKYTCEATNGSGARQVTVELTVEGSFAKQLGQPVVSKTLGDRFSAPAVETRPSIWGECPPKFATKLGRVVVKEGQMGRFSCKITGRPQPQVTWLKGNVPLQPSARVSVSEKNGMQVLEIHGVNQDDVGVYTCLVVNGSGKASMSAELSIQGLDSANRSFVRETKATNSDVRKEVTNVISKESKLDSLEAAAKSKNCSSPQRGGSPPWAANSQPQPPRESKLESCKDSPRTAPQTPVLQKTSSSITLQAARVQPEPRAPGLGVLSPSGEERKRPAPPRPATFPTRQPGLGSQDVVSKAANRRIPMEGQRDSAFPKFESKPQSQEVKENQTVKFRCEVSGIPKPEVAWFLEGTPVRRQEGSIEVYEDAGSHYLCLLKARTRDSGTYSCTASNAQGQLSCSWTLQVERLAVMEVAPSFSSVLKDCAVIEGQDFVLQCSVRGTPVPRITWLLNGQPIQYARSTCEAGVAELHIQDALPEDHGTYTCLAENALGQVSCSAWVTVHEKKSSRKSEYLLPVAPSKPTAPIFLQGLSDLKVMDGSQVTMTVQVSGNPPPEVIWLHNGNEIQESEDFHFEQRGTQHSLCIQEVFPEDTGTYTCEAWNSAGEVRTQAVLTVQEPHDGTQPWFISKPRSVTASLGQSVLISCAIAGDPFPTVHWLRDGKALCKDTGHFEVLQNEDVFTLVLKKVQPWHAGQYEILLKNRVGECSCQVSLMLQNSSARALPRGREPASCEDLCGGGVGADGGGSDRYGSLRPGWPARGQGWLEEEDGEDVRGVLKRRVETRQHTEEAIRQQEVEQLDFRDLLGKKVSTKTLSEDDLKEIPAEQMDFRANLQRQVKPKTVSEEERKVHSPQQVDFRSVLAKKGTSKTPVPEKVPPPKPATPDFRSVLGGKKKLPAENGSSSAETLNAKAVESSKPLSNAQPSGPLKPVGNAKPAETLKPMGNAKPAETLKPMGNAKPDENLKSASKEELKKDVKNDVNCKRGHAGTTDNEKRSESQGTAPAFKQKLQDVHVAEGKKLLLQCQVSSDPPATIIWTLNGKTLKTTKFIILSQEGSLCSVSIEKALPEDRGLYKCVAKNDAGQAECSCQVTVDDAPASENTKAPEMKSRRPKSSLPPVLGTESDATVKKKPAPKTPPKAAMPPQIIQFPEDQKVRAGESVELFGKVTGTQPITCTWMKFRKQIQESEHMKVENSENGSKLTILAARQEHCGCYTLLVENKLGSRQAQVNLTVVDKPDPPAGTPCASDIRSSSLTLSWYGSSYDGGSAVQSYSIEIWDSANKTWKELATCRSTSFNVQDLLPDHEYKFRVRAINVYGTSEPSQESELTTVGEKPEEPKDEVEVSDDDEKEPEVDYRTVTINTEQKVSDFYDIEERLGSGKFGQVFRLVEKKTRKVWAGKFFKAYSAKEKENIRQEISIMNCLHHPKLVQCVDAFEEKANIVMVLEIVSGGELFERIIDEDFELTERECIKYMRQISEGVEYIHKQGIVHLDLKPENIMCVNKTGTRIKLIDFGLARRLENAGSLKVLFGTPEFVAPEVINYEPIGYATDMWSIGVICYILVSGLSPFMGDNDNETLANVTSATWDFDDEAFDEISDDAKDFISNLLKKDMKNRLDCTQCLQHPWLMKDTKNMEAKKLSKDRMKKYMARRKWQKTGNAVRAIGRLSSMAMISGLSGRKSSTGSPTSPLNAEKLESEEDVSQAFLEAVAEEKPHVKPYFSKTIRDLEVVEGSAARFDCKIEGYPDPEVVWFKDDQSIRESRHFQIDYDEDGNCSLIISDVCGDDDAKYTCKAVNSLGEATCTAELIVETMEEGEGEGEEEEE
Chain of Receptor tyrosine-protein kinase erbB-4 (Homo sapiens) (Q15303 whole entry): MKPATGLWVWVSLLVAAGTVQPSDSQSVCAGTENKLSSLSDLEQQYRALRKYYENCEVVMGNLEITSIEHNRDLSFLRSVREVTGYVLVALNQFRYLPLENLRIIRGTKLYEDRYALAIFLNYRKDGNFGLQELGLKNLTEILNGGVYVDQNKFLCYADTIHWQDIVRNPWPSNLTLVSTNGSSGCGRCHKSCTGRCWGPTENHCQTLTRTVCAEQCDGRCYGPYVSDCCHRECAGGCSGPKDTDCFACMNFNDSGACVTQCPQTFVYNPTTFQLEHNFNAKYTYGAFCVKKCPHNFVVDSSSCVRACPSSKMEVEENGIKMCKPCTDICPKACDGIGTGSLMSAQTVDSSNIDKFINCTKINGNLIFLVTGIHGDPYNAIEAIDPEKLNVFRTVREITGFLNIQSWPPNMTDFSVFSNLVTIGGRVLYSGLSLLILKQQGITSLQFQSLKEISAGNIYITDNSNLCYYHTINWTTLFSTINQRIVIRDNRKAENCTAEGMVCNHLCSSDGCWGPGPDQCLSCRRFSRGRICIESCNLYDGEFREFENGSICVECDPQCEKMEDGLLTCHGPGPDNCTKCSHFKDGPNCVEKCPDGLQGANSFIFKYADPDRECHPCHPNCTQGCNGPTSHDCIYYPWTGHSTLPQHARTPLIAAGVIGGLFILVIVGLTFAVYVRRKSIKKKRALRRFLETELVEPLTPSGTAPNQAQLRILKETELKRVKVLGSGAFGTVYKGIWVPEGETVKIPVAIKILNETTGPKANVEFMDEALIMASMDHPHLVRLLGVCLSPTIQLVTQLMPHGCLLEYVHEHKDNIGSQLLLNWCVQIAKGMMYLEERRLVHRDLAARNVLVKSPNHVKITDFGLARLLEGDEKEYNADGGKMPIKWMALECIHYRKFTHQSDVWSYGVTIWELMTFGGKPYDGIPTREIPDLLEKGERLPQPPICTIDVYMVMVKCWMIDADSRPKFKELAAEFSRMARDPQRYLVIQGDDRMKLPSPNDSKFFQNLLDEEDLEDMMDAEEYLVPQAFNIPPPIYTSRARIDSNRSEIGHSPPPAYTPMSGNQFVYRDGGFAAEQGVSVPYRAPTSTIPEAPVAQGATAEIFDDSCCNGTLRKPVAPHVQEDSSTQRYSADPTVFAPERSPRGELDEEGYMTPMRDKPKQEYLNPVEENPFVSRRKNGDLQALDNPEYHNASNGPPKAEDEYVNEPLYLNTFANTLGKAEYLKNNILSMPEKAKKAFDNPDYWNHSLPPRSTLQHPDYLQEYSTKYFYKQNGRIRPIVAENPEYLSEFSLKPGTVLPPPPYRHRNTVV
Chain of Calcium/calmodulin-dependent protein kinase type 1B (Homo sapiens) (Q6P2M8 whole entry): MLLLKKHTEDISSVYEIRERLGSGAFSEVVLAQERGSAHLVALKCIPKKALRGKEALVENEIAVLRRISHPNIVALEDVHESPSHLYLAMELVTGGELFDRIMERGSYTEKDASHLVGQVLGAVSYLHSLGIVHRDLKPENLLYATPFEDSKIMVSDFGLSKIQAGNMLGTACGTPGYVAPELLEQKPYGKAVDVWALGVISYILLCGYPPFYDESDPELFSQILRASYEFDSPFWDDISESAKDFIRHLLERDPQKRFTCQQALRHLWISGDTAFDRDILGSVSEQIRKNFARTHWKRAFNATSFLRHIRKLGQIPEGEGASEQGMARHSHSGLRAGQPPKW

Row | SMILES | residual activity [1] | residual activity [2] | residual activity [3] | residual activity [4] | residual activity [5] | residual activity [6] | residual activity [7] | residual activity [8] | residual activity [9] | residual activity [10] | residual activity [11] | residual activity [12] | residual activity [13] | residual activity [14] | inhibition [15] | residual activity [16] | residual activity [17] | inhibition [18] | residual activity [19] | residual activity [20] | also measured
1 | Cn1nc(C(=O)NCc2ccc(C(=O)O)cc2)cc1-c1ccc2[nH]ccc2c1 [BI 4395] | 89% | 94% | 48% | 98% | 43% | 89% | 82% | 62% | 94% | 72% | 63% | 84% | 83% | 100% | 0.78% | 100% | 93% | -4.12% | 86% | 100% | residual activity [21]: 100%; residual activity [22]: 97%
2 | CCOC(=O)c1cc2cc(-c3cc(C(=O)NCc4ccc(C(=O)O)cc4)nn3C)ccc2[nH]1 [BI 4394] | 100% | 74% | 100% | 96% | 97% | 100% | 83% | 100% | 70% | 85% | 78% | 81% | 86% | 92% | 14.8% | 100% | 100% | 8.18% | 100% | 97% | residual activity [21]: 94%; residual activity [22]: 84%
